Results on five molecules are retold here after US10004222B2, “Small molecule ice recrystallization inhibitors and methods of use thereof” (THE UNIVERSITY OF OTTAWA, priority 2012, dated 2018).

Data set [1] in a line: splat cooling ice recrystallization inhibition (IRI) assay. The note with it: 0.5 mM. Here is the method: In this assay, the area of ice crystals are measured after a 30 minute annealing time at −6.4° C. and compared to a positive control for ice recrystallization resulting in a quantitative measurement of the mean ice grain size. For a positive control, a phosphate buffered saline (PBS) solution was utilized. All samples were normalized to the PBS positive control. The ice recrystallization inhibition activity of the carbohydrate-based non-ionic surfactants n-octyl-β-D-glucopyranoside (compound 3) and n-octyl-β-D-galactopyranoside (compound 4) is shown in FIG. 1.
In this assay, the area of ice crystals are measured after a 30 minute annealing time at −6.4° C. and compared to a positive control for ice recrystallization resulting in a quantitative measurement of the mean ice grain size. For a positive control, a PBS solution was utilized. All samples were normalized to the PBS positive control.
N-aryl-D-gluconamides (3a), (2a), (4a), and (1b) are a class of low molecular weight carbohydrate-based compounds. The ice recrystallization inhibition activity of (3a), (2a), (4a), and (1b) was assessed using a “splat cooling” assay. In this assay, the area of ice crystals are measured after a 30 minutes annealing time at −6.4° C. and compared to a positive control for ice recrystallization resulting in a quantitative measurement of the mean ice grain size. For a positive control, PBS was utilized. All samples were normalized to the PBS positive control.

Data set [2] in a line: thermal hysteresis (TH) activity and dynamic ice shaping, Clifton Nanoliter Osmometer. As to conditions: 0.01 mg/mL. How it is done: As both compound 4 (at 22 mM) and compound 5 (at 0.5 mM) are novel potent low molecular weight inhibitors of ice recrystallization, whether they were interacting directly with the ice lattice was investigated. Carbohydrate derivatives (compounds 3-6) were examined for TH activity using a Clifton Nanoliter Osmometer. See Tam, R. et al. (2009) “Solution Conformation of C-Linked Antifreeze Glycoprotein Analogues and Modulation of Ice Recrystallization” J. Am. Chem. Soc. 131:15747-15753; Tam, R. et al. (2008) “Hydration Index—A Better Parameter for Explaining Small Molecule Hydration in Inhibition of Ice Recrystallization” J. Am. Chem. Soc. 130: 17494-17501.
In this assay a single droplet of the sample in water was suspended in the center of an oil-filled well in a sample holder plate. The sample was then rapidly frozen using a thermoelectrically controlled microscope stage, then the temperature was raised and the sample melted until only a single ice crystal remained. Once a single ice crystal was obtained, its growth and behavior upon increasing/decreasing the temperature was viewed under a microscope.
The above synthesized C-linked AFGP analogues and carbohydrate derivatives were assessed for TH activity at 10 mg/mL. Compounds 3-6 could not be assessed for TH activity at this concentration due to their amphiphilic nature. […]

A short description of data set [3]: solubility and gelation in water, PBS. Type of data set: physicochemical.
For data set [4] the following is noted: previously demonstrated; cited from earlier work.
The conditions of data set [5]: previously demonstrated; cited from earlier work. The source holds these as a separate data set.
The test system of a further data set is Tf1-α cells. The experiment in a line: cryopreservation of Tf1-α cells, viability/apoptosis by flow cytometry (7-AAD, Annexin V). Type of data set: cell-based. The note with it: stored at −196° C. for 48 hours. How it is done:
Tf1-α cells were cultured to a final concentration of 2-3×10^6 cells/mL. Three million cells were transferred into cryovials and media were removed by aspiration after centrifugation at 1000 rpm for five minutes. 100 μL of RPMI media (10% FBS) supplemented with the cryopreservative of interest was added to the cryovial and vortexed. The cryovials were cooled at a rate of −1° C./min for 24 hours to −80° C. before being transferred to a liquid nitrogen dewar for storage until analysis.
Cryovials were thawed under fast thaw conditions (submerged in 37° C. water bath). The cells were then diluted to a concentration of 3×10^6 cells/mL with 1× Annexin V Binding Buffer and a cell count was obtained by hemacytometer (to obtain cell recovery). A 400 μL aliquot was transferred to a flow cytommetry tube. 10 μL of each Annexin V FITC (for apoptosis) and 7-AAD (for viability) dyes were added, the tube was vortexed and allowed to incubate in the dark for 15 minutes. The solution was diluted to 1 mL with 1× Annexin V Binding Buffer, vortexed and analyzed by flow cytommetry. […] With 2% DMSO, cell viability reached about 45%, and with 10% DMSO, cell viability reached around 78%.
Background: Flow cytometry measures light scatter and fluorescence of single cells or particles in a stream.

In data set [6] the test system is CD34+ cells (hematopoietic stem cells). The experiment in a line: post-thaw viability of CD34+ cells of cryopreserved umbilical cord blood, flow cytometry. Type of data set: cell-based, human. How it is done: Whole umbilical cord blood (UCB) should be stored at room temperature (15-25° C.) and processed within 48 hrs of collection. UCB is removed from collection bag and spilt in equal parts into 50 mL Falcon tubes. No more than 25 mL of UCB should be added per Falcon tube. UCB is diluted with 6% hetastarch (Hespan) to obtain a final concentration of 1% hetastarch and incubated for 10 minutes at room temperature. The tubes are then centrifuged at 50 g at 10° C. for 15-20 minutes, depending on volume. The centrifuge should not brake to stop. For total volumes of 30 mL, 15-17 minute centrifugation is utilized and for total volumes of 35 mL, 17-20 minute centrifugation is utilized. The supernatant and buffy coat (plasma and leukocytes) are removed carefully (not collecting RBCs) from the tubes and collected into new 50 mL Falcon tubes. These tubes are centrifuged at 400 g and 10° C. for 10 mins to pellet cells. The centrifuge brake can now be utilized. Plasma is removed and kept in new 50 mL Falcon tubes on ice. The cell pellets resuspended and combined in plasma to a total volume of 20 mL to generate leukocyte concentrate (LC). The LC is kept on ice for the duration of its use. Total mononuclear (CD45^+) and CD34^+ (hematopoetic stem cells) cell concentrations and viability are determined by flow cytometry (see Flow Cytometry procedure below). Aliquots of LC (50,000 CD34^+ cells) are utilized for cryopreservation experiments (see Cryopreservation Experiments procedure below).
(§1) Aliquots of LC (50,000 CD34^+ cells) are added to 2.0 mL cryovials. For each experiment, four cryovials are prepared (two for post-thaw viability analysis using flow cytometry and two for functionality analysis using the colony forming unit assay). Cryovials are kept on ice until placement in −80° C. freezer. Cryovials are centrifuged at 400 g and 10° C. for 5 minutes to pellet cells. After centrifugation, the time taken until placement in −80° C. freezer should not exceed 10 minutes. Supernatant is removed by aspiration or by decanting, but preferably by aspiration. Plasma (volume depends on desired cryosolution concentration) is added and cells are suspended by pipetting. Pre-made cryosolutions (see Cryosolutions) are added (volume depends on desired cryosolution concentration) and mixed by pipetting. Cryovials are placed in a Mr. Frosty® rate controlled freezing container which is then placed in a −80° C. freezer for 24 hours. By placing the cryovials in the freezing container, their contents undergo a cooling rate of about −1° C. per minute. After 24 hours, the cryovials are transferred to a liquid nitrogen dewar for storage until thawed for analysis.
(§2) Cryosolutions are prepared in distilled autoclaved water supplemented with 0.9% saline and 5% dextran for cryopreservation experiments and diluted with different volumes of plasma in cryovials depending on desired concentration of ice recrystallization inhibitor. N-(4-chlorophenyl)-D-gluconamide (4a) and N-(2-fluorophenyl)-D-gluconamide (2a) are prepared at 25 mM and N-(4-methoxyphenyl)-D-gluconamide (3a) and N-(2,6-difluorobenzyl)-D-gluconamide (1b) are prepared at 55 mM. 100, 50, 33 or 20 μL of 25 mM N-(4-chlorophenyl)-D-gluconamide (4a) or N-(2-fluorophenyl)-D-gluconamide (2a) are added to cryovials containing 50,000 CD34^+ cells suspended in 0, 50, 67, or 80 μL of plasma, respectively, for a final IRI concentration of 25, 12.5, 8 or 5 mM, respectively. 100, 50, 33 or 20 μL of 55 mM N-(4-methoxyphenyl)-D-gluconamide (3a) or N-(2,6-difluorobenzyl)-D-gluconamide (1b) are added to cryovials containing 50,000 CD34^+ cells suspended in 0, 50, 67, or 80 μL of plasma, respectively, for a final IRI concentration of […], 18 or 11 mM, respectively.
Total mononuclear cell (CD45+) and progenitor cell (CD34+) viability is assessed by flow cytometry using International Society of Hematotherapy and Graft Engineering (ISHAGE) guidelines (J. Hematother. Stem Cell Res. 1996, 5, 213-226). […]

Data set [7] has the same test system. The data set is described as follows: colony forming unit (CFU) assay after cryopreservation of umbilical cord blood. Type of data set: cell-based, human. Here is the method:
as §1, §2
Cryovials are thawed in a 37° C. water bath and diluted with 900 μL of IMDM (10% FBS, 1% penicillin/streptomycin). Cryovials are placed on ice until washed. Samples are mixed by pipetting and 80 μL is transferred to a 15 mL Falcon tube. 5 mL of Iscove's Modified Dulbecco's Medium (IMDM) supplemented with 10% fetal bovine serum (FBS) is added and this mixture is centrifuged at 1100 rpm for six minutes to yield a cell pellet and a supernatant. The supernatant is removed by aspiration and the cell pellet is resuspended in 1 mL IMDM (2% FBS) to form a suspension. The suspension is mixed by pipetting. 150 μL of this cell suspension is added to 3 mL Methocult™ media and plating is performed in accordance with manufacturer's instruction. The suspension with Methocult™ media is mixed adequately by vortexing for 20 seconds. The contents are allowed to settle and bubbles are allowed to subside before plating (approximately 5-10 minutes). Using a 3 mL syringe and 16 gauge blunt needles, 2.5 mL of the cell suspension in Methocult™ is taken from the bottom. 1 mL of this 2.5 mL is added to two 5 mL cell culture dishes. The dishes are swirled to ensure cells in Methocult™ medium coat the entire bottom of the dish. A third 5 mL dish is prepared to contain distilled autoclaved water without a lid. These three 5 mL dishes are placed in a 100 mL plate; two 5 mL dishes contain 1 mL of cell suspension in Methocult™ medium with the lid on and one containing distilled autoclaved water with the lid off. The lid is placed on the 100 mL plate and stored in a 37° C. incubator (5% CO2) for two weeks.

Data set [8] has as its system human embryonic liver cells. The note with it: compared with DMSO; cited from earlier work.
The mark [9] stands for this setting: 10% DMSO (⅕ dilution with plasma), UCB Unit 27.
Setting [10] is: 10% DMSO (⅕ dilution with plasma), UCB Unit 28.
The mark [11] stands for this setting: 10% DMSO only, IRI None, post-thaw, 14 days in Methocult.

Where “and” joins values, the source holds several entries; their conditions need not be identical. Equal values may be shown once. Read-outs that look alike come from different tables or passages of the source. Non-standard residues stand in square brackets, D forms with d. Residues, ends and D or L forms follow the SMILES beside them. *: point of attachment. X1 = O=C(C[C@H]1OC(CO)[C@H](O)[C@H](O)C1O)*; Orn = NCCC[C@H](N)C(=O)O

For `CCCCCCCCNC(=O)[C@H](O)[C@@H](O)[C@@H](O)[C@H](O)CO` [compound 6, N-octyl-D-galactonamide], the “ice recrystallization inhibition activity” value in data set [1] is recorded as “only moderate”. Moreover, in data set [2], the dynamic ice shaping result was “do not exhibit this activity”. Further, in data set [3], the solubility entry is reported as “poor solubilities”.
Take `N[C@@H](CC[C@H]1OC(CO)[C@H](O)[C@H](O)C1O)C(=O)NCC(=O)NCC(=O)N[C@@H](CC[C@H]1OC(CO)[C@H](O)[C@H](O)C1O)C(=O)NCC(=O)NCC(=O)N[C@@H](CC[C@H]1OC(CO)[C@H](O)[C@H](O)C1O)C(=O)NCC(=O)NCC(=O)N[C@@H](CC[C@H]1OC(CO)[C@H](O)[C@H](O)C1O)C(=O)NCC(=O)NCC(=O)NCC(=O)O` (some centres unmarked) [analog 2]: the TH activity result in data set [4] is reported as “do not exhibit TH activity”. In addition, the “ice recrystallization inhibition activity” value in [5] is on record as “potent inhibitors of ice recrystallization”.
As for `CCCCCCCCNC(=O)[C@H](O)[C@@H](O)[C@H](O)[C@H](O)CO` [compound 5, N-octyl-D-gluconamide], the “ice recrystallization inhibition activity” value in data set [1] is reported as “potent”. Besides, the dynamic ice shaping result in data set [2] was “do not exhibit this activity”. Besides, the solubility result in data set [3] is reported as “poor solubilities”.
Regarding `C[S+](C)[O-]` [DMSO, Dimethyl sulfoxide, reference compound], the cell viability result in the data set with Tf1-α cells (2% DMSO alone) is “about 45%”. Besides, the cell viability entry in the data set on Tf1-α cells (10% DMSO alone) was “around 78%”. The “Post-Thaw Viab.” value in [6] (10% DMSO (no plasma)) is 83%. In addition, the “Post-Thaw Viab.” value in data set [6] (setting [9]) stood at 88%. Moreover, the “Post-Thaw Viab.” value in data set [6] (setting [10]) was found to be 87%. Besides, the “Tot. No. Colonies” value in data set [7] (10% DMSO (no plasma)) was 47 and 34. For the same molecule, the “Tot. No. Colonies” value in [7] (setting [9]) is 56 and 35. Further, the “Tot. No. Colonies” value in [7] (setting [10]) stood at 36. Moreover, in data set [7] (setting [11]), the BFU-E was found to be 15.6, the CFU-G is given as 5.1, the CFU-GEMM turned out to be 2.8 and the CFU-GM was found to be 6.8. Besides, in data set [7] (setting [11]), the CFU-M worked out at 0.7 and the “Total Number of Colonies” value is given as 31. The “Tot. No. Colonies, AVG” value in data set [7] (average of control solutions) is on record as 28.
Turning to `N[C@@H](CCCNC(=O)C[C@H]1OC(CO)[C@H](O)[C@H](O)C1O)C(=O)NCC(=O)NCC(=O)N[C@@H](CCCNC(=O)C[C@H]1OC(CO)[C@H](O)[C@H](O)C1O)C(=O)NCC(=O)NCC(=O)N[C@@H](CCCNC(=O)C[C@H]1OC(CO)[C@H](O)[C@H](O)C1O)C(=O)NCC(=O)NCC(=O)N[C@@H](CCCNC(=O)C[C@H]1OC(CO)[C@H](O)[C@H](O)C1O)C(=O)NCC(=O)NCC(=O)NCC(=O)O` (some centres unmarked) [analog 1] (H-[Orn](X1)GG[Orn](X1)GG[Orn](X1)GG[Orn](X1)GGG-OH), in [4], the TH activity result is given as “do not exhibit TH activity”. In data set [5], the “ice recrystallization inhibition activity” value is on record as “potent inhibitors of ice recrystallization”. The cryoprotective ability entry in [8] is “as effective as a 2.5% solution of DMSO”.
